Measurements as given in publication PMC10922394 (Journal of internal medicine, 2023).

Target: T1, rChAT (recombinant choline acetyltransferase) (Homo sapiens, UniProt P28329)
T1 sequence (P28329 119-748): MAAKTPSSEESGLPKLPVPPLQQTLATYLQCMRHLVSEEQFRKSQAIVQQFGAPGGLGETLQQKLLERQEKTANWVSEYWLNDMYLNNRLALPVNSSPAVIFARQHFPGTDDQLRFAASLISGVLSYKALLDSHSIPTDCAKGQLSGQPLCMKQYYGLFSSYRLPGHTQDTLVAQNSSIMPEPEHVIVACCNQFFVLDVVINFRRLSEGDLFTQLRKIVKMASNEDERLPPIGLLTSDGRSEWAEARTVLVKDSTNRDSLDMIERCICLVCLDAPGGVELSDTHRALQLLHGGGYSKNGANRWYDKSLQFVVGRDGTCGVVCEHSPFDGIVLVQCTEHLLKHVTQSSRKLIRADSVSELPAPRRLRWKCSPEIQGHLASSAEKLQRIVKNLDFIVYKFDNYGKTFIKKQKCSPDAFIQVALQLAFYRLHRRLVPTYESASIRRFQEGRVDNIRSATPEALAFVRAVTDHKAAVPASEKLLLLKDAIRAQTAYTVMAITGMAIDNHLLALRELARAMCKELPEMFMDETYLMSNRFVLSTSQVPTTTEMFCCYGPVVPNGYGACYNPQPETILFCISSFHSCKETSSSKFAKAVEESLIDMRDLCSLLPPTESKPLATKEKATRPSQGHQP
Assay: colorimetric ChAT assay
Format: biochemical

IC50: 148 nM
Structure (SMILES): C[N+](C)(C)CCC(=O)c1cccc2ccccc12 [alpha-NETA]
